Calls of active or inactive are those of the source. The calls are words filed in the database; no cut-off is given here.
Legend:
[1] = target: T1, Serine/threonine-protein kinase tousled-like 2 (Homo sapiens, UniProt Q86UE8); experiment: Inhibition of full length FLAG/HA/Strep-tagged TLK2 (unknown origin) transfected in HEK293T cells at 50 uM using GST-ASF1 as substrate preincubated for 15 mins followed by substrate addition and measured after 15 mins in presence of ATP by Western blot analysis; conditions: time 30.0 min
Target sequence in this assay (Q86UE8 whole entry, looked up): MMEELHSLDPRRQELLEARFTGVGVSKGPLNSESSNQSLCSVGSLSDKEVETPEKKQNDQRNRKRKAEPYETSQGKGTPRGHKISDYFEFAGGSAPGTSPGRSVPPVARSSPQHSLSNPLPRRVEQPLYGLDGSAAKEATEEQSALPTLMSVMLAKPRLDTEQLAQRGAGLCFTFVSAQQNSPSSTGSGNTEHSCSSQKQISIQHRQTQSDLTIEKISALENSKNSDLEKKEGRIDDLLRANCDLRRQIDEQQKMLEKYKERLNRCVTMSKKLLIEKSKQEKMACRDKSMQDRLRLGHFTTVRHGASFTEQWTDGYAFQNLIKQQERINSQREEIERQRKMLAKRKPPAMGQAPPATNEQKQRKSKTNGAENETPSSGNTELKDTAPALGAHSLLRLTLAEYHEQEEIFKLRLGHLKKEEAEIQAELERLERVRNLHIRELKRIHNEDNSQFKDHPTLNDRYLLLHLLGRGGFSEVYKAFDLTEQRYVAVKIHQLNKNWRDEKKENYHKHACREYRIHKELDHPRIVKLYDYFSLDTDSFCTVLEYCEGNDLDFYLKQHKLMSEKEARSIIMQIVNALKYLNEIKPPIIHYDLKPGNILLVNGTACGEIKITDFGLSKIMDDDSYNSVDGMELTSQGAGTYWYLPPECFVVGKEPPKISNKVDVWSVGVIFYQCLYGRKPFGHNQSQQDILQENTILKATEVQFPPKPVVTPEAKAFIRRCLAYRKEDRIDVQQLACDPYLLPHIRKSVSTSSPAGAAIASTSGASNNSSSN

MDA-MB-231 [2] = experiment: Cytotoxicity against human MDA-MB-231 cells assessed as reduction in cell viability at 0.5 uM measured after 72 hrs by MTT assay; assay type: functional
[3] = target: T1, Serine/threonine-protein kinase tousled-like 2; experiment: Binding affinity to full length FLAG/HA/Strep-tagged TLK2 (388 to 772 residues) (unknown origin) transfected in HEK293T cells by Alexa Fluor 647 staining based FRET assay; assay type: cell-based
Target sequence in this assay (Q86UE8 whole entry): as the sequence (Q86UE8 whole entry, looked up) above

[4] = target: Histone chaperone ASF1A (Homo sapiens) (UniProt Q9Y294); experiment: Inhibition of ASF1a phosphorylation at S166 residue in human MDA-MB-231 cells at 10 uM incubated for 4 hrs by Western blot analysis; assay type: cell-based
[5] = Cytotoxicity against human IMR-90 cells assessed as reduction in cell viability incubated for 72 hrs by MTT assay; assay type: toxicity, cell-based
HCT-116 = experiment: Cytotoxicity against human HCT-116 cells assessed as reduction in cell viability incubated for 72 hrs by MTT assay; assay type: functional, cell-based; conditions: HCT-116, 72 h
[6] = Cytotoxicity against human MRC5 cells assessed as reduction in cell viability incubated for 72 hrs by MTT assay; assay type: toxicity, cell-based
MDA-MB-231 [7] = experiment: Induction of DNA damage in human MDA-MB-231 cells at 10 uM incubated for 4 hrs by gel electrophoresis method; assay type: functional, cell-based
MDA-MB-231 [8] = experiment: Antiproliferative activity against human MDA-MB-231 cells assessed as reduction in cell growth at 0.25 uM by trypan blue assay; assay type: functional, cell-based
A549 = experiment: Cytotoxicity against human A549 cells assessed as reduction in cell viability incubated for 72 hrs by MTT assay; assay type: functional, cell-based; conditions: A549, 72 h
MDA-MB-231 [9] = experiment: Cytotoxicity against human MDA-MB-231 cells assessed as reduction in cell viability incubated for 72 hrs by MTT assay; assay type: functional, cell-based; conditions: MDA-MB-231, 72 h
MDA-MB-231 [10] = experiment: Effect on cell cycle progression in human MDA-MB-231 cells assessed as accumulation of cells at S phase at 2 uM by PI staining based flow cytometric analysis; assay type: functional
[11] = target: T1, Serine/threonine-protein kinase tousled-like 2; experiment: Inhibition of full length FLAG/HA/Strep-tagged TLK2 (unknown origin) transfected in HEK293T cells assessed as reduction in ASF1a phosphorylation at S166 residue at 5 uM by Western blot analysis; assay type: cell-based
Target sequence in this assay (Q86UE8 whole entry, looked up): as above

U2OS [12] = experiment: Effect on cell cycle progression in human U2OS cells assessed as accumulation of cells at early stage of S phase measured after 8 hrs by PI staining based flow cytometric analysis; assay type: functional
U2OS [13] = experiment: Inhibition of DNA replication in PCNA positive human U2OS cells assessed as reduction in EdU level at 50 uM incubated for 4 hrs by immunofluorescence staining based EdU incorporation assay; assay type: functional, cell-based
[14] = target: T1, Serine/threonine-protein kinase tousled-like 2; experiment: Inhibition of full length FLAG/HA/Strep-tagged TLK2 (unknown origin) in human U2OS cells assessed as reduction in ASF1 phosphorylation at 16.7 uM measured after 4 hrs by Western blot analysis; assay type: cell-based
Target sequence in this assay (Q86UE8 whole entry, looked up): as above

[15] = target: T1, Serine/threonine-protein kinase tousled-like 2; experiment: Inhibition of full length FLAG/HA/Strep-tagged TLK2 (unknown origin) in human U2OS cells assessed as ASF1 phosphorylation by measuring decrease in band shift at 16.7 uM measured after 4 hrs by Western blot analysis; assay type: cell-based
Target sequence in this assay (Q86UE8 whole entry, looked up): as above

U2OS [16] = experiment: Induction of DNA damage in human U2OS cells assessed as increase in RPA2 phosphorylation at S4/S8 residue at 5 to 10 uM incubated for 4 hrs by Western blot analysis; assay type: functional, cell-based; conditions: dose 5-10 µM
U2OS [17] = experiment: Inhibition of DNA replication in PCNA positive human U2OS cells assessed as reduction in EdU level at 2.5 to 20 uM incubated for 4 hrs by immunofluorescence staining based EdU incorporation assay; assay type: functional, cell-based; conditions: dose 2.5-20 µM
U2OS [18] = experiment: Induction of DNA damage in human U2OS cells assessed as increase in CHK2 phosphorylation at T68 residue at 5 to 10 uM incubated for 4 hrs by Western blot analysis; assay type: functional, cell-based; conditions: dose 5-10 µM
U2OS [19] = experiment: Induction of DNA damage in human U2OS cells assessed as increase in KAP1 phosphorylation at S824 residue at 5 to 10 uM incubated for 4 hrs by Western blot analysis; assay type: functional, cell-based; conditions: dose 5-10 µM
[20] = target: T1, Serine/threonine-protein kinase tousled-like 2; experiment: Inhibition of full length FLAG/HA/Strep-tagged TLK2 (unknown origin) in human MDA-MB-231 cells assessed as reduction in ASF1 phosphorylation at 16.7 uM measured after 4 hrs by Western blot analysis; assay type: cell-based
Target sequence in this assay (Q86UE8 whole entry, looked up): as above

[21] = target: T1, Serine/threonine-protein kinase tousled-like 2; experiment: Inhibition of full length FLAG/HA/Strep-tagged TLK2 (unknown origin) transfected in HEK293T cells assessed as reduction in TLK mediated ASF1a phosphorylation at 50 uM by Western blot analysis; assay type: cell-based
Target sequence in this assay (Q86UE8 whole entry, looked up): as above

U2OS [22] = experiment: Induction of DNA damage in PCNA positive human U2OS cells assessed as increase in H2AX phosphorylation at S139 residue in S phase by measuring fluorescence intensity at 10 uM incubated for 4 hrs by immunofluorescence microscopy; assay type: functional, cell-based
U2OS [23] = experiment: Effect on cell cycle progression in human U2OS cells assessed as accumulation of cells at S phase measured after 8 hrs by PI staining based flow cytometric analysis; assay type: functional; conditions: dose 2.5-20 µM, DDE = dose-dependent effect
U2OS [24] = experiment: Induction of DNA damage in human U2OS cells assessed as increase in CHK1 phosphorylation at S345 residue at 2.5 to 5 uM incubated for 4 hrs by Western blot analysis; assay type: functional, cell-based; conditions: dose 2.5-5 µM
MDA-MB-231 [25] = experiment: Induction of apoptosis in human MDA-MB-231 cells assessed as increase in caspase-9 level at 4 uM incubated for 72 hrs by gel electrophoresis method; assay type: functional, cell-based
MDA-MB-231 [26] = experiment: Induction of cell cycle arrest in human MDA-MB-231 cells assessed as increase in cells at sub G1 phase at 2 uM measured after 72 hrs by PI staining based flow cytometric analysis (reference value: 0.8%); assay type: functional
MDA-MB-231 [27] = experiment: Antiproliferative activity against human MDA-MB-231 cells assessed as reduction in cell growth at 1 uM by trypan blue assay; assay type: functional, cell-based
MDA-MB-231 [28] = experiment: Induction of cell cycle arrest in human MDA-MB-231 cells assessed as increase in cells at sub G1 phase at 4 uM measured after 72 hrs by PI staining based flow cytometric analysis (reference value: 0.8%); assay type: functional
MDA-MB-231 [29] = experiment: Antiproliferative activity against human MDA-MB-231 cells assessed as increase in cell death rate at 1 uM by trypan blue assay; assay type: functional, cell-based
MDA-MB-231 [30] = experiment: Induction of apoptosis in human MDA-MB-231 cells assessed as decrease in Bcl-xL level at 4 uM incubated for 72 hrs by gel electrophoresis method; assay type: functional, cell-based
MDA-MB-231 [31] = experiment: Induction of apoptosis in human MDA-MB-231 cells assessed as increase in caspase-3 level at 4 uM incubated for 72 hrs by gel electrophoresis method; assay type: functional, cell-based
MDA-MB-231 [32] = experiment: Induction of apoptosis in human MDA-MB-231 cells assessed as decrease in MCL-1 level at 4 uM incubated for 72 hrs by gel electrophoresis method; assay type: functional, cell-based

Histone chaperone ASF1A (Homo sapiens), sequence (Q9Y294 whole entry): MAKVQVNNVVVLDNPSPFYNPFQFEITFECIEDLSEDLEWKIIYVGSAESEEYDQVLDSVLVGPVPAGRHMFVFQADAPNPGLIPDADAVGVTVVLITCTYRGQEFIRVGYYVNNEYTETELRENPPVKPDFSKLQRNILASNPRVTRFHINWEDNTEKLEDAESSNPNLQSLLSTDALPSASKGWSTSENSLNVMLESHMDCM

Row | inhibition of ASF1a S166 phosphorylation (active/inactive call) [4] | inhibition [11] | Structure (SMILES) | Activity (MDA-MB-231 [2]) [%] | IC50 at 72 h [5] [nM] | IC50 (HCT-116) [nM] | IC50 at 72 h [6] [nM] | IC50 (A549) [nM] | IC50 (MDA-MB-231 [9]) [nM] | also measured
1 | – | – | COc1ccc2c(c1)c(C1=C(c3c[nH]c4ccccc34)C(=O)NC1=O)cn2CCCN(C)C | – | – | – | – | – | – | inhibition [1]: Active
2 | Active | Active | CN1CCC(O/N=C2/C(=C3/C(=O)Nc4ccccc43)Nc3ccccc32)CC1 | 40 | > 2000 | 390 | > 2000 | 190 | 250 | IC50 [3]: 33.1 nM; Activity (MDA-MB-231 [7]): Active; Activity (MDA-MB-231 [8]): Active; Activity (MDA-MB-231 [10]): Active
3 | Active | Active | CN(C)CCCO/N=C1/C(=C2/C(=O)Nc3ccccc32)Nc2ccccc21 | 40 | > 2000 | 710 | > 2000 | 610 | 440 | Activity (MDA-MB-231 [7]): Active; Activity (MDA-MB-231 [10]): Active
4 | – | – | CN1CCCCC1CCO/N=C1/C(=C2/C(=O)Nc3cc(F)ccc32)Nc2ccccc21 (centres undefined) | <30 | – | – | – | – | – | –
5 | – | – | CN[C@@H]1C[C@H]2O[C@@](C)([C@@H]1OC)n1c3ccccc3c3c4c(c5c6ccccc6n2c5c31)C(=O)NC4 | – | – | – | – | – | – | inhibition [1]: Active
6 | – | – | CN1CCCCC1CCO/N=C1/C(=C2/C(=O)Nc3ccccc32)Nc2ccc(F)cc21 (centres undefined) | <30 | – | – | – | – | – | –
7 | Active | – | CN1CCCCC1CCO/N=C1/C(=C2/C(=O)Nc3cc(Cl)ccc32)Nc2ccccc21 (centres undefined) | – | – | – | – | – | – | –
8 | – | – | CN(C)CCCn1cc(C2=C(c3c[nH]c4ccccc34)C(=O)NC2=O)c2ccccc21 | – | – | – | – | – | – | inhibition [1]: Active
9 | Active | Active | CN1CCCCC1CCO/N=C1/C(=C2/C(=O)Nc3ccc(F)cc32)Nc2ccccc21 (centres undefined) | 40 | > 2000 | 600 | > 2000 | 600 | 530 | –
10 | – | – | NC(=O)NO | – | – | – | – | – | – | Activity (U2OS [12]): Active; inhibition (U2OS [13]): Active; inhibition [14]: Active
11 | – | – | CN1CCCCC1CCO/N=C1/C(=C2/C(=O)Nc3ccccc32)Nc2ccccc21 (centres undefined) | <30 | > 2000 | 1280 | > 2000 | 1210 | 1170 | inhibition [15]: Active; IC50 [3]: 163 nM; Activity (U2OS [16]): Active; inhibition (U2OS [17]): Active; Activity (U2OS [18]): Active; Activity (U2OS [19]): Active; inhibition [20]: Active; inhibition [21]: Active; Activity (U2OS [22]): Active; Activity (U2OS [23]): Dde; Activity (U2OS [24]): Active
12 | Active | Active | CN1CCCC1CCO/N=C1/C(=C2/C(=O)Nc3ccccc32)Nc2ccccc21 (centres undefined) | 40 | > 2000 | 370 | > 2000 | 260 | 250 | Activity (MDA-MB-231 [25]): Active; Activity (MDA-MB-231 [26]): 15.4%; IC50 [3]: 18.6 nM; Activity (MDA-MB-231 [27]): Active; Activity (MDA-MB-231 [28]): 25.6%; Activity (MDA-MB-231 [29]): Active; Activity (MDA-MB-231 [7]): Active; Activity (MDA-MB-231 [30]): Active; Activity (MDA-MB-231 [8]): Active; Activity (MDA-MB-231 [31]): Active; Activity (MDA-MB-231 [10]): Active; Activity (MDA-MB-231 [32]): Active
13 | Active | Active | CN1CCCCC1CCO/N=C1/C(=C2/C(=O)Nc3ccc([N+](=O)[O-])cc32)Nc2ccccc21 (centres undefined) | 40 | – | – | – | – | – | –

— ChEMBL document CHEMBL5143513, “Design, synthesis and biological evaluation of bisindole derivatives as anticancer agents against Tousled-like kinases” (Eur J Med Chem, 2022)
